Test results reported in patent publication US8367695B2, “Condensed tetrahydroquinoline derivative and use thereof for medical purposes” (Mitsubishi Tanabe Pharma Corporation, priority 2007, dated 2013).
Where two headings read alike, the source gives them in different places.

Molecular target: T1, human recombinant mineralocorticoid receptor (MR) (Homo sapiens, UniProt P08235)
T1 construct: made in house; host or cells: insect cell Sf9 (baculovirus)
T1 sequence (P08235 1-984): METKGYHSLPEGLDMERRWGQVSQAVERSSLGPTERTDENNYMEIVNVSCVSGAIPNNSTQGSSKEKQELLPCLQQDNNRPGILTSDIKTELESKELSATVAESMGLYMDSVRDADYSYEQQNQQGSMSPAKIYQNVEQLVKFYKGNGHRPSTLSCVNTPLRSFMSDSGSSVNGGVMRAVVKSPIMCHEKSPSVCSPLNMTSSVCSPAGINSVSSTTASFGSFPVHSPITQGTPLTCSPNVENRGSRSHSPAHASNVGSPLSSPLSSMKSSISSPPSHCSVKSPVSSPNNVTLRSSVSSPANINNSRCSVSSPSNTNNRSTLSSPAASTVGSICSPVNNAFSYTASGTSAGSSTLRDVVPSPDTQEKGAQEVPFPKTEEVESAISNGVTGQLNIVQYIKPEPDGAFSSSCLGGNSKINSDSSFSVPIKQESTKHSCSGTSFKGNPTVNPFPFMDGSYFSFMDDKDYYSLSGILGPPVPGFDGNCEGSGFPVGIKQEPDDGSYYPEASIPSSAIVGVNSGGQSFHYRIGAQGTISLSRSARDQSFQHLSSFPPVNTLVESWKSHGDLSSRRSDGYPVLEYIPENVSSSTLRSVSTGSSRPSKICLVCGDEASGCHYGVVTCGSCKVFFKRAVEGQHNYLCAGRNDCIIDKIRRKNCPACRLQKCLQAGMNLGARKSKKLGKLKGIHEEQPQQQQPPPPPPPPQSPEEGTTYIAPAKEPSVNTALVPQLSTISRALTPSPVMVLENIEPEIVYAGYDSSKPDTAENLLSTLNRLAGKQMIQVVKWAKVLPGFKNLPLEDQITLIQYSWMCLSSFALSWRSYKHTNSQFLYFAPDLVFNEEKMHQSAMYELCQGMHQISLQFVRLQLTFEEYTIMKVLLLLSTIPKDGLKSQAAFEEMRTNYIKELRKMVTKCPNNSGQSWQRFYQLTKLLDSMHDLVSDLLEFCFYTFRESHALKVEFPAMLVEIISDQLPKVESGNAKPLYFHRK
Experiment: Radioactive ligand binding test, MR cytosol, [3H]-Ald
Text: Radioactive Ligand Binding Test Using Cytosols of Human Glucocorticoids Receptor, Progesterone Receptor and Mineralocorticoid Receptor
The procedures described in Neuroimmunomodulation (1994, 1, p. 66-73) and Invest. Opthalmol. Vis. Sci. (1996, 37, p. 805-813) were modified and used. In brief, cytosol preparations of human recombinant glucocorticoids receptor (GR) and human recombinant progesterone receptor-B (PRB) were purchased from Invitrogen (Carlsbad, Calif.), and a cytosol preparation of human recombinant mineralocorticoid receptor (MR) was prepared by our company (Yokohama, JP). MR cDNA was cloned into a baculovirus expression vector and expressed in insect cell Sf9. The procedures described in J. Biol. Chem. (1991, 266, p. 18072-18081), Proc. Natl. Acad. Sci. USA (1991, 88, p. 10681-10685) and Bac-to-Bac (registered trade mark) Baculovirus Expression Systems technical manual (Invitrogen) were partly modified and used as the procedures for MR gene cloning up to preparation of recombinant receptor cytosol. [^3H]-Dexamethasone (Dex, specific activity 91.0 Ci/mmol) was purchased from GE Healthcare (Buckinghamshire, UK), and [^3H]-progesterone (Prog, specific activity 103 Ci/mmol) and [3H]-aldosterone (Ald, specific activity 87.9 Ci/mmol) were each purchased from PerkinElmer (Boston, Mass.). Polypropylene round-bottomed 96 well plate was obtained from ABgene (Epsom, UK). Dimethyl Sulfoxide (DMSO) and hydrochloric acid were obtained from Kanto Chemical (TOKYO, JP). Trizma Base (Tris), Bovine Serum Albumin (BSA) and Sodium tungstate dihydrate were obtained from Sigma Chemicals (St. Louis, Mo.). Dithiothreitol (DTT) and Dextran 70 were obtained from GE Healthcare (Buckinghamshire, UK). Glycerol was obtained from Junsei Chemical (TOKYO, JP). Norit® “SX-II” was obtained from Wako Pure Chemical Industries, Ltd. (Osaka, JP). MeltiLex™, A, Printed Filtermat A and Sample Bag were obtained from PerkinElmer (Boston, Mass.).
As a buffer for GR binding assay, 25 mM Tris-HCl (4° C., pH 7.4)/1 mM EDTA·2Na/1 mM DTT/0.1% BSA was prepared and used. As buffers for PRB and MR binding assay, 10 mM Tris-HCl (4° C., pH 7.4)/1 mM DTT/0.1% BSA/10% glycerol and 20 mM Tris-HCl (4° C., pH 7.4)/1 mM EDTA·2Na/10% glycerol/20 mM sodium tungstate were respectively prepared and used. As dextran-coated charcoal (DCC) for B/F separation, 0.75% Dextran 70/0.75% Norit® SX-II/10 mM Tris-HCl (4° C., pH 7.4) was prepared and used.
Compound storage solutions (5-20 mM) were prepared using DMSO. The storage solutions were diluted with DMSO to 0.1 mM (for GR) and 0.3 mM (for PRB and MR), and further diluted 20-fold with distilled water to give solutions. Then, the preparations were diluted to each concentration with 5% DMSO solution. 1% DMSO was present at the time of the binding assay.
In the case of MR binding assay, [^3H]-Ald (about 4 nM), MR cytosol (about 1 mg/mL concentration of total protein), a test compound and a binding buffer were mixed in a total volume of 50 μL, and the mixture was stood at 4° C. for 30 min or longer. A specific binding was defined to be the difference in the [^3H]-Ald binding between the presence and the absence of 1 μM unlabeled Ald.
After the reaction, 50 μL of DCC was added to each well and blended. Thereafter, the mixture was stood at 4° C. for 10 min. The plate was applied to high-speed cooling centrifuge under the conditions of 4° C., 2000 rpm, 5 min to perform B/F separation. A given amount of the supernatant was recovered, which was spotted on Filtermat A of 96 well format (PerkinElmer) and rapidly dried at a high temperature. Then, solid scintillator MeltiLex A (PerkinElmer) was melted on Filtermat A. The mixture was placed in a Sample Bag (PerkinElmer), and the level of radioactivity was measured by plate reader 1450 Micro Beta TRILUX (PerkinElmer).
Measurement of Inhibition Constant (Ki)

Structure (SMILES)	Ki [nM]	Ki ([3H]-Ald about 4 nM, MR cytosol (Sf9), 4° C., Cheng-Prusoff, Kd about 2.0 nM, read-out: MR (Ki: nM)) [nM]
Cc1noc(C)c1-c1cc2c(c3c1CCC3)NC(C)(C)C(=O)C2(C)C [Example 2, 6-(3,5-dimethylisoxazol-4-yl)-2,2,4,4-tetramethyl-2,3,4,7,8,9-hexahydro-1H-cyclopenta[h]quinolin-3-one]	> 1000	
CC1(C)Nc2c(cc(-c3ccnc4cc[nH]c34)c3c2CCC3)C(C)(C)C1=O [Example 13, 2,2,4,4-tetramethyl-6-(1H-pyrrolo[3,2-b]pyridin-7-yl)-2,3,4,7,8,9-hexahydro-1H-cyclopenta[h]quinolin-3-one]	> 1000	
CC1(C)Nc2c(cc(-c3cccc4nccn34)c3c2CCC3)C(C)(C)C1=O [Example 14, 6-(imidazo[1,2-a]pyridin-5-yl)-2,2,4,4-tetramethyl-2,3,4,7,8,9-hexahydro-1H-cyclopenta[h]quinolin-3-one]	> 1000	
CC1(C)Nc2c(cc(-c3cccc4nncn34)c3c2CCC3)C(C)(C)C1=O [Example 17, 2,2,4,4-tetramethyl-6-([1,2,4]triazolo[4,3-a]pyridin-5-yl)-2,3,4,7,8,9-hexahydro-1H-cyclopenta[h]quinolin-3-one]	> 1000	
CC1(C)Nc2c(cc(-c3cccc4ncccc34)c3c2CCC3)C(C)(C)C1=O [Example 20, 2,2,4,4-tetramethyl-6-(quinolin-5-yl)-2,3,4,7,8,9-hexahydro-1H-cyclopenta[h]quinolin-3-one]	> 1000	
CC1(C)Nc2c(cc(-c3ccnc4ncccc34)c3c2CCC3)C(C)(C)C1=O [Example 21, 2,2,4,4-tetramethyl-6-([1,8]naphthyridin-4-yl)-2,3,4,7,8,9-hexahydro-1H-cyclopenta[h]quinolin-3-one]	> 1000	
C=C1C(C)(C)Nc2c(cc(-c3c(C)ncn3C)c3c2CCC3)C1(C)C [Example 29, 6-(3,5-dimethyl-3H-imidazol-4-yl)-2,2,4,4-tetramethyl-3-methylene-2,3,4,7,8,9-hexahydro-1H-cyclopenta[h]quinoline]	> 1000	
C=CCC1(C)C(=O)C(C)(C)Nc2c1cc(-c1ccc(O)cc1C)c1c2CCC1 (centres unmarked) [Example 50, 4-allyl-6-(4-hydroxy-2-methylphenyl)-2,2,4-trimethyl-2,3,4,7,8,9-hexahydro-1H-cyclopenta[h]quinolin-3-one]	> 1000	
C=CCC1(C)C(=O)C(C)(C)Nc2c1cc(-c1c(C)noc1C)c1c2CCC1 (centres unmarked) [Example 51, 4-allyl-6-(3,5-dimethylisoxazol-4-yl)-2,2,4-trimethyl-2,3,4,7,8,9-hexahydro-1H-cyclopenta[h]quinolin-3-one]	> 1000	
C=CCC1(C)C(=O)C(C)(C)Nc2c1cc(-c1cccc3nccn13)c1c2CCC1 (centres unmarked) [Example 57, 4-allyl-6-(imidazo[1,2-a]pyridin-5-yl)-2,2,4-trimethyl-2,3,4,7,8,9-hexahydro-1H-cyclopenta[h]quinolin-3-one]	> 1000	
CCC1(C)C(=O)C(C)(C)Nc2c1cc(-c1cccc3nccn13)c1c2CCC1 (centres unmarked) [Example 58, 4-ethyl-6-(imidazo[1,2-s]pyridin-5-yl)-2,2,4-trimethyl-2,3,4,7,8,9-hexahydro-1H-cyclopenta[h]quinolin-3-one]		> 1000
CC#CCC1(C)C(=O)C(C)(C)Nc2c1cc(-c1cccc3nccn13)c1c2CCC1 (centres unmarked) [Example 63, 4-(2-butynyl)-6-(imidazo[1,2-a]pyridin-5-yl)-2,2,4-trimethyl-2,3,4,7,8,9-hexahydro-1H-cyclopenta[h]quinolin-3-one]	> 1000	
Cc1noc(C)c1-c1cc2c(c3c1OCO3)NC(C)(C)C(=O)C2(C)C [Example 69, 4-(3,5-dimethylisoxazol-4-yl)-6,6,8,8-tetramethyl-6,7,8,9-tetrahydro-[1,3]dioxolo[4,5-h]quinolin-7-one]	> 1000	
CC1(C)Nc2c(cc(-c3cccc4nccn34)c3c2OCO3)C(C)(C)C1=O [Example 71, 4-(imidazo[1,2-a]pyridin-5-yl)-6,6,8,8-tetramethyl-6,7,8,9-tetrahydro-[1,3]dioxolo[4,5-h]quinolin-7-one]	> 1000	
CC1(C)Nc2c(cc(-c3cccc4ncccc34)c3c2OCO3)C(C)(C)C1=O [Example 72, 6,6,8,8-tetramethyl-4-(quinolin-5-yl)-6,7,8,9-tetrahydro-[1,3]dioxolo[4,5-h]quinolin-7-one]	> 1000	
C=CCC1(C)C(=O)C(C)(C)Nc2c1cc(-c1cccc3cc[nH]c13)c1c2OCO1 (centres unmarked) [Example 78, 6-allyl-4-(1H-indol-7-yl)-6,8,8-trimethyl-6,7,8,9-tetrahydro-[1,3]dioxolo[4,5-h]quinolin-7-one]	> 1000	
CC1(C)Nc2c(cc(-c3cccc4nccn34)c3c2OC(F)(F)O3)C(C)(C)C1=O [Example 82, 2,2-difluoro-4-(imidazo[1,2-a]pyridin-5-yl)-6,6,8,8-tetramethyl-6,7,8,9-tetrahydro-[1,3]dioxolo[4,5-h]quinolin-7-one]	> 1000	
